From patent US8785459B2, “Quinazoline compounds as kinase inhibitors” (Development Center for Biotechnology, priority 2011, dated 2014)

Experiments:
[1] = target: B-Raf (Homo sapiens (Human), UniProt P15056); assay: Raf kinase assay (B-Raf), [33P] incorporation into MEK1(K97R); assay type: biochemical; settings: for inhibition at 1 µM: 1.0 μM compound, read-out: B-Raf inhibition at 1.0 μM
Outline: (§1)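 [33P] transfer to kinase-dead MEK1(K97R) substrate (500 ng) measured after 30 min at 30 °C in Tris pH 7.5 buffer containing 8 μM ATP. Enzyme inputs were 2 ng for C-Raf and 5 ng for B-Raf and B-Raf V600E. Duplicate 3-fold serial dilutions gave the half-maximal inhibitory concentration.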

[2] = target: B-Raf (V600E) (Homo sapiens (Human), UniProt P15056, V600E); assay: Raf kinase assay (B-Raf (V600E)), [33P] incorporation into MEK1(K97R); assay type: biochemical
Outline: as §1

[3] = target: C-Raf (Homo sapiens (Human), UniProt P04049); assay: Raf kinase assay (C-Raf), [33P] incorporation into MEK1(K97R); assay type: biochemical
Outline: as §1

[4] = test system: A549; assay: Anti-proliferative activity, CellTiter-96 assay, A549; assay type: cell-based; settings: Homo sapiens, A549 cells, 72 hours incubation
Experimental: (§2) Antiproliferative Activity
(§3) The anti-proliferative activities of the compounds with formula (I) and formula (II) with respect to four human cancer cell lines (A549, A375, MDA-MB-231, and COLO205) were measured using the CellTiter™-96 assay kit (Promega) following the manufacturer's instructions. In brief, the cells were maintained in DMEM containing 10% FCS and incubated at 37° C. in 5% CO2 atmosphere. Cells were plated at a density of 2000 cells/well of a 96-well plate for 24 h, then treated with different concentrations of the compounds, and incubated for another 72 hours. At the end of the incubation, CellTiter™-96 Aqueous One Solution Reagent (Promega) was added and incubated for another 4.0 hours. Cell viability was determined by measuring absorbance at 490 nm using EMax® microplate reader (Molecular Devices). Data were processed and analyzed using GraphPad Prism version 4.

[5] = test system: A375; assay: Anti-proliferative activity, CellTiter-96 assay, A375; assay type: cell-based; settings: Homo sapiens, A-375, A375 cells, 72 hours incubation
Experimental: as §2, §3

[6] = test system: MDA-MB-231; assay: Anti-proliferative activity, CellTiter-96 assay, MDA-MB-231; assay type: cell-based; settings: Homo sapiens, MDA-MB-231 cells, 72 hours incubation
Experimental: as §2, §3

[7] = test system: COLO205; assay: Anti-proliferative activity, CellTiter-96 assay, COLO205; assay type: cell-based; settings: Homo sapiens, COLO 205, COLO205 cells, 72 hours incubation
Experimental: as §2, §3

Sequence of B-Raf (V600E) (P15056 whole entry V600E): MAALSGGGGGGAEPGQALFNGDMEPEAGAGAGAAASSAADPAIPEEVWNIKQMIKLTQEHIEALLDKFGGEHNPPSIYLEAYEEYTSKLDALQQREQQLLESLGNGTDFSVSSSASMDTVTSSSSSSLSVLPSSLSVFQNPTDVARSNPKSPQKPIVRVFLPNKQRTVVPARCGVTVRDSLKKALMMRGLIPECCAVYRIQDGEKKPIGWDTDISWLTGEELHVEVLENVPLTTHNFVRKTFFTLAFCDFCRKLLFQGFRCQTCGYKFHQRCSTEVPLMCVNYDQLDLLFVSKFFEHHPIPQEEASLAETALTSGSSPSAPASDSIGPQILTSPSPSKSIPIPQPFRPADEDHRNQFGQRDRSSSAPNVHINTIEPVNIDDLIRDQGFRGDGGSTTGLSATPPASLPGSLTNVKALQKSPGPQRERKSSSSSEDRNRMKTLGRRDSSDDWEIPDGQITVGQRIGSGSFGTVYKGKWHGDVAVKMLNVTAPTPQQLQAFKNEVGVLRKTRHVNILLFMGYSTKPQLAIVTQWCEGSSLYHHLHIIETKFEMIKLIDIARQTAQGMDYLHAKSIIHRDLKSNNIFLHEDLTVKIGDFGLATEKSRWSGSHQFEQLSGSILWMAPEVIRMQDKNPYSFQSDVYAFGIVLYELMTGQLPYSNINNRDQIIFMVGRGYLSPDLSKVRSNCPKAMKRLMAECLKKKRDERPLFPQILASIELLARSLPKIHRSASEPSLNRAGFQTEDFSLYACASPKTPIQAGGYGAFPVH
Sequence of B-Raf (P15056 whole entry): as the sequence (P15056 whole entry V600E) above, with E600V counted along it
Sequence of C-Raf (P04049 whole entry): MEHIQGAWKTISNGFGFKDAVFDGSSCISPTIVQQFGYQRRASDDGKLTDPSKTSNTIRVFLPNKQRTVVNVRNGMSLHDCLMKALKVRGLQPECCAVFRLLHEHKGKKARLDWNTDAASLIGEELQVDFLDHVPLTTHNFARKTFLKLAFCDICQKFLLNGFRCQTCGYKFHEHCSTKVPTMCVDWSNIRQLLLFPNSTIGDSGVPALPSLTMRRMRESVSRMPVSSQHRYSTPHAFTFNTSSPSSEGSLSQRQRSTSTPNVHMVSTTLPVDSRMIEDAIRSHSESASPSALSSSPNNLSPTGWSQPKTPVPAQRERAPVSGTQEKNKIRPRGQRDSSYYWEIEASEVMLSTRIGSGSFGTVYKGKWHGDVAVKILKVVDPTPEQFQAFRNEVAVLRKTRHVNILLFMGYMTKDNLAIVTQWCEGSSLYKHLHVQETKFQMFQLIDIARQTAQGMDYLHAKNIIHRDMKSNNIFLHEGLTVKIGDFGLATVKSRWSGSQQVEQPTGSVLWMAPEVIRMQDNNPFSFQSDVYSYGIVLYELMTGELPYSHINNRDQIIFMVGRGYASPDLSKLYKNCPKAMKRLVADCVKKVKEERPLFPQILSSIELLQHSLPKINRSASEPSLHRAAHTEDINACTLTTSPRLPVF

| Structure (SMILES) | IC50 [1] [nM] | inhibition at 1 µM [1] [%] | IC50 [2] [nM] | IC50 [3] [nM] | IC50 [4] [nM] | IC50 [5] [nM] | IC50 [6] [nM] | IC50 [7] [nM] |
| --- | --- | --- | --- | --- | --- | --- | --- | --- |
| COc1cc(-c2ccc3ncnc(Nc4ccc(F)cc4)c3c2)ccc1O [Compound 15, 4-(4-(4-fluorophenylamino)quinazolin-6-yl)-2-methoxyphenol] | 1150 | 44.4 | 1020 | 1450 | 2500 ± 600 | 2700 ± 200 | 4100 ± 300 | 11800 ± 4600 |
| Oc1ccc(-c2ccc3nccc(Nc4cccc5[nH]ncc45)c3c2)cc1 [Compound 124, 4-(4-(1H-indazol-4-ylamino)quinolin-6-yl)phenol] | 188 | 82.4 | 185 | 409 | 6100 ± 600 | 7300 ± 600 | 8500 ± 1400 | 9600 ± 600 |
| COc1ccc(-c2ccc3ncnc(Oc4cccc(O)c4)c3c2)cc1 [Compound 152, 3-(6-(4-methoxyphenyl)quinazolin-4-yloxy)phenol] | 131 | 86.4 | 198 | 2330 | > 50000 | > 50000 | > 50000 |  |
| COc1cc(-c2ccc3ncnc(Nc4cc(O)ccc4C)c3c2)ccc1O [Compound 154, 4-(4-(5-hydroxy-2-methylphenylamino)quinazolin-6-yl)-2-methoxyphenol] | 60 | 88.4 | 70.9 | 590 | 900 ± 500 | 1000 ± 200 | 1000 ± 100 | 6400 ± 600 |
| COc1cc2ncnc(Nc3cccc(O)c3)c2cc1-c1ccc(N)cc1 [Compound 68, 3-(6-(4-aminophenyl)-7-methoxyquinazolin-4-ylamino)phenol] | 55.8 | 83.7 | 76.6 | 860 | 7000 ± 2400 | 4900 ± 1700 | 11500 ± 3800 | 15700 ± 4100 |
| COc1cc(-c2ccc3ncnc(Nc4cc(O)c(C)cc4F)c3c2)ccc1O [Compound 156, 4-fluoro-5-(6-(4-hydroxy-3-methoxyphenyl)quinazolin-4-ylamino)-2-methylphenol] | 57.3 | 92.4 | 81.7 | 301 | 1600 ± 400 | 1900 ± 300 | 2800 ± 200 | 9600 ± 3800 |
| COc1cc(-c2ccc3ncnc(Nc4cc(O)c(F)cc4F)c3c2)ccc1O [Compound 158, 2,4-difluoro-5-(6-(4-hydroxy-3-methoxyphenyl)quinazolin-4-ylamino)phenol] | 3.8 | 96.4 | 7.1 | 36.3 | 900 ± 400 | 400 ± 100 | 1200 ± 100 | 5100 ± 1000 |
| COc1cc(-c2ccc3nccc(Nc4cccc5[nH]ncc45)c3c2)ccc1O [Compound 103, 4-(4-(1H-indazol-4-ylamino)quinolin-6-yl)-2-methoxyphenol] | 164 | 85.2 | 211 | 354 | 3200 | 6600 | 4000 ± 200 | 8900 |
| COc1cc(-c2ccc3nccc(Nc4cc(O)ccc4F)c3c2)ccc1O [Compound 101, 4-(4-(2-fluoro-5-hydroxyphenylamino)quinolin-6-yl)-2-methoxyphenol] | 18.1 | 97.1 | 20.9 | 96.1 | 6700 ± 100 | 2300 ± 300 | 21100 ± 3800 | 21100 ± 3800 |
| COc1cc(-c2ccc3ncnc(Nc4ccccc4)c3c2)ccc1O [Compound 1, 2-methoxy-4-(4-(phenylamino)quinazolin-6-yl)phenol] | 900 |  | 760 | 2150 | 1300 ± 300 | 2300 ± 100 | 1800 ± 200 | 8500 ± 2300 |
| NC(=O)c1cccc(-c2ccc3nccc(Nc4cccc5[nH]ncc45)c3c2)c1 [Compound 117, 3-(4-(1H-indazol-4-ylamino)quinolin-6-yl)benzamide] | 107 | 86.6 | 114 | 321 | 23500 ± 500 | 23700 ± 2400 | 13600 ± 900 | 8900 ± 100 |
| c1cc(Nc2ncnc3ccc(-c4ccc5[nH]ncc5c4)cc23)c2cn[nH]c2c1 [Compound 153, N-(1H-indazol-4-yl)-6-(1H-indazol-5-yl)quinazolin-4-amine] | 188 | 84.4 | 236 | 723 | 7700 ± 600 | 6400 ± 900 | 7800 ± 300 |  |
| CCCS(=O)(=O)Nc1cccc(-c2ccc3nccc(Nc4cccc5[nH]ncc45)c3c2)c1 [Compound 122, N-(3-(4-(1H-indazol-4-ylamino)quinolin-6-yl)phenyl)propane-1-sulfonamide] | 259 | 77.5 | 264 | 439 |  |  |  |  |
| COc1ccc(Nc2ncnc3ccc(-c4ccc(O)c(OC)c4)cc23)cc1O [Compound 25, 4-(4-(3-hydroxy-4-methoxyphenylamino)quinazolin-6-yl)-2-methoxyphenol] | 1110 | 54.9 | 842 | 1560 |  |  |  |  |
| Fc1ccccc1-c1ccc2nccc(Nc3cccc4[nH]ncc34)c2c1 [Compound 125, 6-(2-fluorophenyl)-N-(1H-indazol-4-yl)quinolin-4-amine] | 285 | 71.2 | 423 | 1030 |  |  |  |  |
| COc1cc(-c2ccc3ncnc(Nc4cccc(N)c4)c3c2)ccc1O [Compound 37, 4-(4-(3-aminophenylamino)quinazolin-6-yl)-2-methoxyphenol] | 573 | 65.8 | 849 | 1310 |  |  |  |  |
| N#Cc1ccc(-c2ccc3ncnc(Nc4cccc5[nH]ncc45)c3c2)cc1 [Compound 88, 4-(4-(1H-indazol-4-ylamino)quinazolin-6-yl)benzonitrile] | 249 | 77.4 | 299 | 630 |  |  |  |  |
| Fc1cccc(-c2ccc3ncnc(Nc4cccc5[nH]ncc45)c3c2)c1 [Compound 81, 6-(3-fluorophenyl)-N-(1H-indazol-4-yl)quinazolin-4-amine] | 244 | 79.1 | 280 | 588 |  |  |  |  |
| COc1cc(-c2ccc3ncnc(Nc4ccc(F)cc4F)c3c2)ccc1O [Compound 20, 4-(4-(2,4-difluorophenylamino)quinazolin-6-yl)-2-methoxyphenol] | 594 | 55.3 | 471 | 882 |  |  |  |  |
| OCc1cccc(-c2ccc3ncnc(Nc4cccc5[nH]ncc45)c3c2)c1 [Compound 94, (3-(4-(1H-indazol-4-ylamino)quinazolin-6-yl)phenyl)methanol] | 430 | 76.2 | 551 | 1410 |  |  |  |  |
| COc1ccc(-c2ccc3nccc(Nc4cccc5[nH]ncc45)c3c2)cc1OC [Compound 113, 6-(3,4-dimethoxyphenyl)-N-(1H-indazol-4-yl)quinolin-4-amine] | 263 | 75.5 | 291 | 972 |  |  |  |  |
| COc1cc(-c2ccc3ncnc(Nc4cccc(C(N)=O)c4)c3c2)ccc1O [Compound 35, 3-(6-(4-hydroxy-3-methoxyphenyl)quinazolin-4-ylamino)benzamide] | 317 | 74.9 | 290 | 970 |  |  |  |  |
| COc1cc(-c2ccc3ncnc(Nc4ccc(Cl)cc4O)c3c2)ccc1O [Compound 21, 4-(4-(4-chloro-2-hydroxyphenylamino)quinazolin-6-yl)-2-methoxyphenol] | 1120 | 47.6 | 1360 | 810 |  |  |  |  |
| COc1cccc(-c2ccc3ncnc(Nc4ccccc4)c3c2)c1 [Compound 3, 6-(3-methoxyphenyl)-N-phenylquinazolin-4-amine] | 3290 |  | 3390 | > 10000 |  |  |  |  |
| COc1cc(-c2ccc3ncnc(Nc4ccc(S(N)(=O)=O)cc4)c3c2)ccc1O [Compound 46, 4-(6-(4-hydroxy-3-methoxyphenyl)quinazolin-4-ylamino)benzenesulfonamide] | 624 | 64.4 | 576 | 1960 |  |  |  |  |
| Fc1ccc(-c2ccc3ncnc(Nc4cccc5[nH]ncc45)c3c2)cc1Cl [Compound 79, 6-(3-chloro-4-fluorophenyl)-N-(1H-indazol-4-yl)quinazolin-4-amine] | 514 | 69.6 | 557 | 1220 |  |  |  |  |
